Experiments:
Test in all cases: Carna kinase panel screen
Format in all cases: biochemical
Conditions in all cases: read-out: % Inhibition ± SD
ABL[T315I] = biological target: T1, ABL[T315I] (Homo sapiens, UniProt P00519, T315I)
T1 construct: purchased Carna Biosciences
Outline: (§1)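 Read-out is percent inhibition, plotted against compound concentration and fitted to a four-parameter logistic model to give IC50. Curves comprised 10 points, with ATP approximating Km.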

ACK = biological target: T2, ACK (Homo sapiens, UniProt Q07912)
T2 construct: purchased Carna Biosciences
Outline: as §1

AMPKa2 = biological target: T3, AMPKa2 (Homo sapiens, UniProt P54646)
T3 construct: purchased Carna Biosciences
Outline: as §1

ARG = biological target: T4, ARG (Homo sapiens, UniProt P42684)
T4 construct: purchased Carna Biosciences
Outline: (§2)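 ATP was used at roughly Km levels while compounds were titrated over a 10-point curve. IC50 values came from four-parameter logistic fits of concentration versus percentage inhibition.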

BRK = biological target: T5, BRK (Homo sapiens, UniProt Q13882)
T5 construct: purchased Carna Biosciences
Outline: as §1

CDK4 = biological target: T6, CDK4 (Homo sapiens, UniProt P11802)
T6 construct: purchased Carna Biosciences
Outline: (§3)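 IC50 from a 10-point concentration series run at ATP near Km; percent inhibition per concentration fitted to a four-parameter logistic curve.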

CDK9 = biological target: T7, CDK9 (Homo sapiens, UniProt P50750)
T7 construct: purchased Carna Biosciences
Outline: as §1

CHK1 = biological target: T8, CHK1 (Homo sapiens, UniProt O14757)
T8 construct: purchased Carna Biosciences
Outline: as §1

CK1d = biological target: T9, CK1d (Homo sapiens, UniProt P48730)
T9 construct: purchased Carna Biosciences
Outline: as §2

CLK1 = biological target: T10, CLK1 (Homo sapiens, UniProt P49759)
T10 construct: purchased Carna Biosciences
Outline: as §1

COT = biological target: T11, COT (Homo sapiens, UniProt P41279)
T11 construct: purchased Carna Biosciences
Outline: as §1

CaMK2a = biological target: T12, CaMK2a (Homo sapiens, UniProt Q9UQM7)
T12 construct: purchased Carna Biosciences
Outline: as §3

DYRK1A = biological target: T13, DYRK1A (Homo sapiens, UniProt Q13627)
T13 construct: purchased Carna Biosciences
Outline: as §3

EphA3 = biological target: T14, EphA3 (Homo sapiens, UniProt P29320)
T14 construct: purchased Carna Biosciences
Outline: as §1

FGFR2 = biological target: T15, FGFR2 (Homo sapiens, UniProt P21802)
T15 construct: purchased Carna Biosciences
Outline: as §1

GSK3a = biological target: T16, GSK3a (Homo sapiens, UniProt P49840)
T16 construct: purchased Carna Biosciences
Outline: as §1

IGF1R = biological target: T17, IGF1R (Homo sapiens, UniProt P08069)
T17 construct: purchased Carna Biosciences
Outline: as §3

JNK2 = biological target: T18, JNK2 (Homo sapiens, UniProt P45984)
T18 construct: purchased Carna Biosciences
Outline: as §3

KIT[V560G] = biological target: T19, KIT[V560G] (Homo sapiens, UniProt P10721, V560G)
T19 construct: purchased Carna Biosciences
Outline: as §3

MAP2K1 = biological target: T20, MAP2K1 (Homo sapiens, UniProt Q02750)
T20 construct: purchased Carna Biosciences
Outline: as §1

MAP2K2 = biological target: T21, MAP2K2 (Homo sapiens, UniProt P36507)
T21 construct: purchased Carna Biosciences
Outline: as §1

MAP3K4 = biological target: T22, MAP3K4 (Homo sapiens, UniProt Q9Y6R4)
T22 construct: purchased Carna Biosciences
Outline: as §1

MAPKAPK3 = biological target: T23, MAPKAPK3 (Homo sapiens, UniProt Q16644)
T23 construct: purchased Carna Biosciences
Outline: as §1

MARK1 = biological target: T24, MARK1 (Homo sapiens, UniProt Q9P0L2)
T24 construct: purchased Carna Biosciences
Outline: as §1

MARK4 = biological target: T25, MARK4 (Homo sapiens, UniProt Q96L34)
T25 construct: purchased Carna Biosciences
Outline: as §1

MLK2 = biological target: T26, MLK2 (Homo sapiens, UniProt Q02779)
T26 construct: purchased Carna Biosciences
Outline: as §1

MNK1 = biological target: T27, MNK1 (Homo sapiens, UniProt Q9BUB5)
T27 construct: purchased Carna Biosciences
Outline: as §1

MNK2 = biological target: T28, MNK2 (Homo sapiens, UniProt Q9HBH9)
T28 construct: purchased Carna Biosciences
Outline: as §1

MST2 = biological target: T29, MST2 (Homo sapiens, UniProt Q13188)
T29 construct: purchased Carna Biosciences
Outline: as §1

MST3 = biological target: T30, MST3 (Homo sapiens, UniProt Q9Y6E0)
T30 construct: purchased Carna Biosciences
Outline: as §1

NEK9 = biological target: T31, NEK9 (Homo sapiens, UniProt Q8TD19)
T31 construct: purchased Carna Biosciences
Outline: as §1

PDGFRb = biological target: T32, PDGFRb (Homo sapiens, UniProt P09619)
T32 construct: purchased Carna Biosciences
Outline: as §1

PKACa = biological target: T33, PKACa (Homo sapiens, UniProt P17612)
T33 construct: purchased Carna Biosciences
Outline: as §1

PKCg = biological target: T34, PKCg (Homo sapiens, UniProt P05129)
T34 construct: purchased Carna Biosciences
Outline: as §1

PRKX = biological target: T35, PRKX (Homo sapiens, UniProt P51817)
T35 construct: purchased Carna Biosciences
Outline: as §1

ROS = biological target: T36, ROS (Homo sapiens, UniProt P08922)
T36 construct: purchased Carna Biosciences
Outline: as §1

TSSK2 = biological target: T37, TSSK2 (Homo sapiens, UniProt Q96PF2)
T37 construct: purchased Carna Biosciences
Outline: as §2

TTK = biological target: T38, TTK (Homo sapiens, UniProt P33981)
T38 construct: purchased Carna Biosciences
Outline: as §1

WNK1 = biological target: T39, WNK1 (Homo sapiens, UniProt Q9H4A3)
T39 construct: purchased Carna Biosciences
Outline: as §1

ZAP70 = biological target: T40, ZAP70 (Homo sapiens, UniProt P43403)
T40 construct: purchased Carna Biosciences
Outline: as §1

p38b = biological target: T41, p38b (Homo sapiens, UniProt Q15759)
T41 construct: purchased Carna Biosciences
Outline: as §1

p70S6Kb = biological target: T42, p70S6Kb (Homo sapiens, UniProt Q9UBS0)
T42 construct: purchased Carna Biosciences
Outline: as §1

skMLCK = biological target: T43, skMLCK (Homo sapiens, UniProt Q9H1R3)
T43 construct: purchased Carna Biosciences
Outline: as §1

T29 sequence (Q13188 whole entry): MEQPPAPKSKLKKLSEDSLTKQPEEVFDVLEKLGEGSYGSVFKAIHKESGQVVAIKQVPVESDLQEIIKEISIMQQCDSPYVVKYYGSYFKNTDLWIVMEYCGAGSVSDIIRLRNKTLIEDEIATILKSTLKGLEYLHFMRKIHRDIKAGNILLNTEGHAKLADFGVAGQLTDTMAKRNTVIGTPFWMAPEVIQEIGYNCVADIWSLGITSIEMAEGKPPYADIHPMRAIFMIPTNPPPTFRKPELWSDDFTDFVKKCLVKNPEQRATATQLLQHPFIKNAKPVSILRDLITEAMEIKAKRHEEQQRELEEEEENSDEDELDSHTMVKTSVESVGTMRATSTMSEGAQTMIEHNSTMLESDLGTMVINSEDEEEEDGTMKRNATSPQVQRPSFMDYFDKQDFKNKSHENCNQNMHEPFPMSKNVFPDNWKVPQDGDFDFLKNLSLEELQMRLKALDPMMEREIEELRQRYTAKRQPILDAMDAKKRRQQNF
T23 sequence (Q16644 whole entry): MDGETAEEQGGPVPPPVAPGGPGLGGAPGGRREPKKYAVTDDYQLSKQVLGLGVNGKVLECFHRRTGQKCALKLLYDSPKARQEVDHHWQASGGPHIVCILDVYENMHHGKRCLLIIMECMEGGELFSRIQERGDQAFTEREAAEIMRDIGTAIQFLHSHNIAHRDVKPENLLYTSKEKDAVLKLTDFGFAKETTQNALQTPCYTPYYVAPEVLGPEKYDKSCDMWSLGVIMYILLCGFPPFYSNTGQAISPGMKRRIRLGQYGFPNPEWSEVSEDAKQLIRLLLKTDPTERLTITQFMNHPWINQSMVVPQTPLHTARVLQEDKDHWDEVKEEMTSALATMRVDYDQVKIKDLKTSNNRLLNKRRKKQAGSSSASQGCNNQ
T18 sequence (P45984 whole entry): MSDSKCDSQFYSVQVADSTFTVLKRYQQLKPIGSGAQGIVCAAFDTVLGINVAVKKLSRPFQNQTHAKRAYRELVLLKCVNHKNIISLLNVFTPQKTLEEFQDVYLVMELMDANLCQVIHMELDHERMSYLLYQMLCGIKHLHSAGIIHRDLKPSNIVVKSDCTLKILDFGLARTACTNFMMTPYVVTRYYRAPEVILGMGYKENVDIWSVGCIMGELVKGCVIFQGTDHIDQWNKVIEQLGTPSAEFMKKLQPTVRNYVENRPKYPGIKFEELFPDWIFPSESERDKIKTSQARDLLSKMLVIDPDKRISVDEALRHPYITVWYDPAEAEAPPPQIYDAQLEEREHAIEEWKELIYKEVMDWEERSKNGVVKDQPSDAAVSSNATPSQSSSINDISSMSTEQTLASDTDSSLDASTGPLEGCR
T36 sequence (P08922 28-2347): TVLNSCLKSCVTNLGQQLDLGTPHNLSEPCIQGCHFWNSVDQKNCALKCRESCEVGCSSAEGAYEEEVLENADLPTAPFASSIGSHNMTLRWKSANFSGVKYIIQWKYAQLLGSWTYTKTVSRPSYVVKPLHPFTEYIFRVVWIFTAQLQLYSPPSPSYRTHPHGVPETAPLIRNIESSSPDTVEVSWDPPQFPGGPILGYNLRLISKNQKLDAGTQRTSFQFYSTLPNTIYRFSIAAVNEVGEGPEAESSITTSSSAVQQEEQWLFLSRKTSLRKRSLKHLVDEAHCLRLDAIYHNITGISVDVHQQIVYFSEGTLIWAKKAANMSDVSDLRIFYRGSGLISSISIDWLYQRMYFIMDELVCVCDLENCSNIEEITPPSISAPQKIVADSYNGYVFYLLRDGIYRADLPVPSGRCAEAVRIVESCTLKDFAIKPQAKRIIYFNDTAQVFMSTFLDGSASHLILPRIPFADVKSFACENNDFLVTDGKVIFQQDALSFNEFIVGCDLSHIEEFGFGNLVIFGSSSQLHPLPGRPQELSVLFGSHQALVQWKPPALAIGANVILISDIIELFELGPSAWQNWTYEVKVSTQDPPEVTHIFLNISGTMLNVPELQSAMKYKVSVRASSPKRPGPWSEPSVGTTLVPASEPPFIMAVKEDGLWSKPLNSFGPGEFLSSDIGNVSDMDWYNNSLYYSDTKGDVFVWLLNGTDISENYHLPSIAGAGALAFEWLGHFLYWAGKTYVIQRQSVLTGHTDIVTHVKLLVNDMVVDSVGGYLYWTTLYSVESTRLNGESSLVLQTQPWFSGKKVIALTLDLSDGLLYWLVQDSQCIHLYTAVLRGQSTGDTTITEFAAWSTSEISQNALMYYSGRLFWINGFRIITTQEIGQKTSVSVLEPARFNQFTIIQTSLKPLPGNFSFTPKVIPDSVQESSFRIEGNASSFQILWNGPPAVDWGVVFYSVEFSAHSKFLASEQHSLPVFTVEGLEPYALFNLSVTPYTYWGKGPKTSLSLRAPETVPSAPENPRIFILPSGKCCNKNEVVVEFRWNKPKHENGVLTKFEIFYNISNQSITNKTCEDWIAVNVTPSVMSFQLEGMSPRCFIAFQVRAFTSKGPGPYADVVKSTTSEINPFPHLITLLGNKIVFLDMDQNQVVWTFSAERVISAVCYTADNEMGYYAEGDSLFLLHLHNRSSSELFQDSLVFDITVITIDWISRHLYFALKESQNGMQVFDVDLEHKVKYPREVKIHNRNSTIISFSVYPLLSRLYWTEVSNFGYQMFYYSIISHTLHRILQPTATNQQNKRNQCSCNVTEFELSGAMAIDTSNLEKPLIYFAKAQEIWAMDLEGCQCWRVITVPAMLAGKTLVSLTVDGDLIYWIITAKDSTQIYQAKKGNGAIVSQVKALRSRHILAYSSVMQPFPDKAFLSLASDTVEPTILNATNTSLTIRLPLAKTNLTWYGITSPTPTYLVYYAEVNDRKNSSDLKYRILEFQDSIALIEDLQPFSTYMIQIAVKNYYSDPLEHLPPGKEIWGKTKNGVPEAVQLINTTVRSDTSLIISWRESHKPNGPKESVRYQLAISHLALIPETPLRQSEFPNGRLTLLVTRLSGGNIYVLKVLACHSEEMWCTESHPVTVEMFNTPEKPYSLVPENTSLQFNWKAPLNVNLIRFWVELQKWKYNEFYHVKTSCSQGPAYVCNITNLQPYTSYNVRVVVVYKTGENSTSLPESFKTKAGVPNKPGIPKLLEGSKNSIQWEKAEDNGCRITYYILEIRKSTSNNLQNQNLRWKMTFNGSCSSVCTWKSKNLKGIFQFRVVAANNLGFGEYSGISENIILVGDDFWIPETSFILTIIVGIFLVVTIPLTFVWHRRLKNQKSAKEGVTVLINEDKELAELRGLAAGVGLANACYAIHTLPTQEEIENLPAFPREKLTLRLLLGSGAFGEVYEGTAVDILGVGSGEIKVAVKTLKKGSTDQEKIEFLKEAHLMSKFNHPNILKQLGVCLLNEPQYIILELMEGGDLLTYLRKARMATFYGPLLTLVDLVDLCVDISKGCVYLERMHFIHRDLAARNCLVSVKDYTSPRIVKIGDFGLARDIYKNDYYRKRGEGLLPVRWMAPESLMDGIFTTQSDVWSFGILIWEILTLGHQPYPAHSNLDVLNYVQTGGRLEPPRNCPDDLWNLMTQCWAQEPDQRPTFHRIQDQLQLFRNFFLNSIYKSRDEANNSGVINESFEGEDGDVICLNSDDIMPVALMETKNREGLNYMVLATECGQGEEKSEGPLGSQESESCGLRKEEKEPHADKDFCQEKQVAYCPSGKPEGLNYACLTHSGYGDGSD
T42 sequence (Q9UBS0 whole entry): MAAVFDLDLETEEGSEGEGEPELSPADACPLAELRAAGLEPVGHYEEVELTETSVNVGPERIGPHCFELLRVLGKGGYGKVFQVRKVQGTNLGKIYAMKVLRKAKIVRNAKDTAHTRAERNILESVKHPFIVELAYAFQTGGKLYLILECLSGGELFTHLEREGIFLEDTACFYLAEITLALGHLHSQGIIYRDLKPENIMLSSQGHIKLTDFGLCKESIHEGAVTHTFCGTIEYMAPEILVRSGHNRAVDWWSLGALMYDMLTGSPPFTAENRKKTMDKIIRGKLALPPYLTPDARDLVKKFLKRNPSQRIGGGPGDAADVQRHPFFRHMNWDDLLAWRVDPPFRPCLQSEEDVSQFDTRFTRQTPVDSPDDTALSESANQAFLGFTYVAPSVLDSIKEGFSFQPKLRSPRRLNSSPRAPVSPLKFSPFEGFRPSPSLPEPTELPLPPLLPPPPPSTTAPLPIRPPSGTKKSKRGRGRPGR
T12 sequence (Q9UQM7 whole entry): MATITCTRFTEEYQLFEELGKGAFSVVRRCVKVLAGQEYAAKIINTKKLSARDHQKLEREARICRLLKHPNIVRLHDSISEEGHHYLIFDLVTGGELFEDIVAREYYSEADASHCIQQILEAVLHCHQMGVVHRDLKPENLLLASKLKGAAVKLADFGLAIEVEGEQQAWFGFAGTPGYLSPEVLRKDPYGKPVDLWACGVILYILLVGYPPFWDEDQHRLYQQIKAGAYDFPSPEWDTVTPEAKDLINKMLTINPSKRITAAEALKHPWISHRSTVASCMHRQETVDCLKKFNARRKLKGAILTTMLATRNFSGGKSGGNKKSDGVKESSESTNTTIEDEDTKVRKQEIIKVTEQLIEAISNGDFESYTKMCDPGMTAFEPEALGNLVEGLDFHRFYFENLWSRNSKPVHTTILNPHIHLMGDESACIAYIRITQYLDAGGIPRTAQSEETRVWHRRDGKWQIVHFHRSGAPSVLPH
T11 sequence (P41279 whole entry): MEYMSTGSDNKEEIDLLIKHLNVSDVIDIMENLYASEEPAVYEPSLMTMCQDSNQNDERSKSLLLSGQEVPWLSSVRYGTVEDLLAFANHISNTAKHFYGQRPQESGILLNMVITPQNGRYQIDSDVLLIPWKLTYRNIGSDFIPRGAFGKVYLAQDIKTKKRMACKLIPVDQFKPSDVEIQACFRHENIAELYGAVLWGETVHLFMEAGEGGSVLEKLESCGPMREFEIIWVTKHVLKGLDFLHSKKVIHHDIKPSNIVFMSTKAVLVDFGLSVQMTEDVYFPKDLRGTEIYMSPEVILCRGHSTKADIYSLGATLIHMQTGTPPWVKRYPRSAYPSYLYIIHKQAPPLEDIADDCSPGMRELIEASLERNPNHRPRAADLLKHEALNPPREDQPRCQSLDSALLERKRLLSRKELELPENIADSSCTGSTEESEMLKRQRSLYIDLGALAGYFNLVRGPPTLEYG

CC[C@H](Nc1nc(NCc2cnc(C)cc2C)c2ncn(C(C)C)c2n1)[C@@H](C)O [Fadraciclib, 2-pentanol, 3-[[6-[[(4,6-dimethyl-3-pyridinyl)methyl]amino]-9-(1-methylethyl)-9Hpurin-2-yl]amino]-, (2R,3S)]
inhibition at 1 µM (ABL[T315I]): -13 ± 0.1%
inhibition at 1 µM (ACK): -0.7%
inhibition at 1 µM (AMPKa2): -12.8 ± 0.7%
inhibition at 1 µM (ARG): 1.8 ± 0.1%
inhibition at 1 µM (BRK): 2.4 ± 0.1%
inhibition at 1 µM (CDK4): 75.7 ± 5%
inhibition at 1 µM (CDK9): 96.6 ± 3.2%
inhibition at 1 µM (CHK1): 1.3%
inhibition at 1 µM (CK1d): 13.8 ± 0.4%
inhibition at 1 µM (CLK1): 70.2 ± 6.8%
inhibition at 1 µM (COT): -15.6 ± 0.4%
inhibition at 1 µM (CaMK2a): -3.6 ± 0.1%
inhibition at 1 µM (DYRK1A): 5.5 ± 0.7%
inhibition at 1 µM (EphA3): 1.6 ± 0.1%
inhibition at 1 µM (FGFR2): -17.6 ± 2.2%
inhibition at 1 µM (GSK3a): 19.3 ± 1.3%
inhibition at 1 µM (IGF1R): -17.1 ± 0.2%
inhibition at 1 µM (JNK2): -19.3 ± 2.2%
inhibition at 1 µM (KIT[V560G]): 2.5 ± 0.1%
inhibition at 1 µM (MAP2K1): -6.8 ± 0.1%
inhibition at 1 µM (MAP2K2): 4.1%
inhibition at 1 µM (MAP3K4): 7.6 ± 0.1%
inhibition at 1 µM (MAPKAPK3): -6.1 ± 0.3%
inhibition at 1 µM (MARK1): -9.7 ± 0.1%
inhibition at 1 µM (MARK4): -5.1 ± 0.4%
inhibition at 1 µM (MLK2): 0.6%
inhibition at 1 µM (MNK1): -13.1 ± 1.6%
inhibition at 1 µM (MNK2): -4.3 ± 0.1%
inhibition at 1 µM (MST2): -1.5%
inhibition at 1 µM (MST3): -16.4 ± 0.7%
inhibition at 1 µM (NEK9): -23.1 ± 0.2%
inhibition at 1 µM (PDGFRb): 3.2 ± 0.1%
inhibition at 1 µM (PKACa): -0.8%
inhibition at 1 µM (PKCg): 17.2%
inhibition at 1 µM (PRKX): -4.2%
inhibition at 1 µM (ROS): -2 ± 0.1%
inhibition at 1 µM (TSSK2): 0.7%
inhibition at 1 µM (TTK): 25.3 ± 4.5%
inhibition at 1 µM (WNK1): -3.3%
inhibition at 1 µM (ZAP70): -11.6 ± 0.3%
inhibition at 1 µM (p38b): -19 ± 0.2%
inhibition at 1 µM (p70S6Kb): 1.9%
inhibition at 1 µM (skMLCK): -9.8 ± 1.1%

From PMC7347136 (PLoS ONE, 2020)
